Experimental data reported in patent US12180187B2, “1-phenyl-5-azinylpyrazolyl-3-oxyalkyl acids and their use for controlling unwanted plant growth” (BAYER AKTIENGESELLSCHAFT, priority 2019, dated 2024).

How the values were obtained:
ALOMY = assay: Pre-emergence action against ALOMY, 1280 g/ha; assay type: in vivo, Alopecurus myosuroides; settings: visual scoring after about 3 weeks vs untreated controls, 100% = plants have died, 0% = like control plants
In short: (§1)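 In greenhouse pots of sandy loam, sown weed seeds were covered with soil and treated pre-emergence with the compound in water (600 L/ha, 0.5% additive). Efficacy was assessed visually as percent of untreated control after about 3 weeks.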

DIGSA = assay: Pre-emergence action against DIGSA, 1280 g/ha; assay type: in vivo, Digitaria sanguinalis; settings: visual scoring after about 3 weeks vs untreated controls, 100% = plants have died, 0% = like control plants
In short: as §1

VERPE = assay: Pre-emergence action against VERPE, 1280 g/ha; assay type: in vivo, Veronica persica; settings: scored visually after about 3 weeks vs untreated controls (100% = plants have died); for pest or weed control at 1280 g/ha: Veronica persica, 504 h
In short: as §1

ECHGC = assay: Pre-emergence action at 320 g/ha against ECHGC; assay type: in vivo, Echinochloa crus-galli; settings: visual scoring after about 3 weeks vs untreated controls
In short: (§2)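 Effect rated visually (% vs untreated control) about 3 weeks after pre-emergence spraying of WP/EC formulation onto soil; spray carried 0.5% additive at 600 l/ha water.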

PHBPU [1] = assay: Pre-emergence action at 320 g/ha against PHBPU; assay type: in vivo; settings: visual scoring after about 3 weeks vs untreated controls
In short: as §2

VIOTR = assay: Pre-emergence action at 320 g/ha against VIOTR; assay type: in vivo, Viola tricolor; settings: dosage 320 g/ha; for pest or weed control at 320 g/ha: Viola tricolor, 504 h
In short: as §2

ABUTH = assay: Post-emergence action against ABUTH, 1.28 kg/ha; assay type: in vivo, Abutilon theophrasti; settings: dosage 1280 g/ha, visual rating about 3 weeks after treatment vs untreated controls (100% = plants died)
In short: (§3)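 Foliar application at the one-leaf stage: compound as WP or EC in water with 0.5% additive, sprayed at 600 L/ha. Plants are kept about 3 weeks in the greenhouse, then % herbicidal action is estimated visually (100% = death).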

AMARE [2] = assay: Post-emergence action against AMARE, 1.28 kg/ha; assay type: in vivo, Amaranthus retroflexus; settings: dosage 1280 g/ha, visual rating about 3 weeks after treatment vs untreated controls (100% = plants died)
In short: as §3

STEME = assay: Post-emergence action against STEME, 1.28 kg/ha; assay type: in vivo, Stellaria media; settings: dosage 1280 g/ha, visual rating about 3 weeks after treatment vs untreated controls (100% = plants died)
In short: as §3

ECHCG = assay: Post-emergence action at 320 g/ha against ECHCG; assay type: in vivo, Echinochloa crus-galli; settings: dosage 320 g/ha, visual rating about 3 weeks after treatment vs untreated controls (100% = plants died)
In short: (§4)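 Greenhouse-grown plants sprayed post-emergence at the one-leaf stage, 2 to 3 weeks after sowing, with WP or EC formulations plus 0.5% additive at 600 l/ha water, at 320 g/ha. Activity rated visually after about 3 weeks versus untreated controls (100% = plants died, 0% = like control).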

AMARE [3] = assay: Post-emergence action at 320 g/ha against AMARE; assay type: in vivo, Amaranthus retroflexus; settings: visual rating about 3 weeks after treatment vs untreated controls; for pest or weed control at 320 g/ha: Amaranthus retroflexus, 504 h
In short: as §4

PHBPU [4] = assay: Post-emergence action at 320 g/ha against PHBPU; assay type: in vivo; settings: visual rating about 3 weeks after treatment vs untreated controls
In short: as §4

POLCO = assay: Post-emergence action at 320 g/ha against POLCO; assay type: in vivo, Fallopia convolvulus (Polygonum convolvulus); settings: visual rating about 3 weeks after treatment vs untreated controls; for pest or weed control at 320 g/ha: Fallopia convolvulus, 504 h
In short: as §4

AVEFA = assay: Post-emergence action at 320 g/ha against AVEFA; assay type: in vivo; settings: visual rating about 3 weeks after treatment vs untreated controls; for pest or weed control at 320 g/ha: Avena fatua, 504 h
In short: as §4

KCHSC [5] = assay: Pre-emergence action against KCHSC, 1280 g/ha; assay type: in vivo, Bassia scoparia; settings: scored visually after about 3 weeks vs untreated controls (100% = plants have died)
In short: as §1

HORMU = assay: Post-emergence action at 320 g/ha against HORMU; assay type: in vivo, Hordeum murinum; settings: visual rating about 3 weeks after treatment vs untreated controls
Source text: Accordingly, the compounds of the invention have good herbicidal action against a broad spectrum of weed grasses and broad-leaved weeds and are therefore suitable for controlling unwanted vegetation by the post-emergence method. • b) Seeds of monocotyledonous and dicotyledonous weeds and crop plants are placed in sandy loam in plastic or organic planting pots, covered with soil and cultivated in a greenhouse under controlled growth conditions. 2 to 3 weeks after sowing, the test plants are treated at the one-leaf stage. The compounds of the invention, formulated in the form of wettable powders (WP) or as emulsion concentrates (EC), are then sprayed onto the green parts of the plants as aqueous suspension or emulsion with addition of 0.5% additive at a water application rate of 600 l/ha (converted). After the test plants have been kept in the greenhouse under optimum growth conditions for about 3 weeks, the activity of the preparations is rated visually in comparison to untreated controls. For example, 100% activity=the plants have died, 0% activity=like control plants. Tables 39 to 49 below show the effects of selected compounds of the general formula (I) according to Tables 1 and 2 on various harmful plants and at an application rate corresponding to 320 g/ha, which were obtained by the experimental procedure mentioned above.

KCHSC [6] = assay: Post-emergence action against KCHSC, 1.28 kg/ha; assay type: in vivo, Bassia scoparia; settings: dosage 1280 g/ha, visual rating about 3 weeks after treatment vs untreated controls (100% = plants died)
In short: as §3

## COC(=O)CNC(=O)COc1nn(-c2ccccc2F)c(-c2ccc(F)nc2)c1Br [Example X-002]
ALOMY
  Pre-emergence action against ALOMY: 100%
DIGSA
  Pre-emergence action against DIGSA: 100%
VERPE
  Pre-emergence action against VERPE: 100%
ECHGC
  Pre-emergence action against ECHGC in %: 100%
PHBPU [1]
  Pre-emergence action against PHBPU in %: 80%
VIOTR
  Pre-emergence action against VIOTR in %: 100%
ABUTH
  Post-emergence action against ABUTH: 90%
AMARE [2]
  Post-emergence action against AMARE: 90%
STEME
  Post-emergence action against STEME: 90%
ECHCG
  Post-emergence action at 320 g/ha against ECHCG in %: 100%
AMARE [3]
  Post-emergence action against AMARE in %: 100%
PHBPU [4]
  Post-emergence action against PHBPU in %: 90%
POLCO
  Post-emergence action against POLCO in %: 90%
AVEFA
  Post-emergence action against AVEFA in %: 100%

## CN(C)S(=O)(=O)NC(=O)COc1nn(-c2ccccc2F)c(-c2ccc(F)nc2)c1Br [Example X-005]
ALOMY
  Pre-emergence action against ALOMY: 100%
DIGSA
  Pre-emergence action against DIGSA: 100%
KCHSC [5]
  Pre-emergence action against KCHSC: 90%
VERPE
  Pre-emergence action against VERPE: 100%
ECHGC
  Pre-emergence action against ECHGC in %: 90%
PHBPU [1]
  Pre-emergence action against PHBPU in %: 90%
VIOTR
  Pre-emergence action against VIOTR in %: 100%
ABUTH
  Post-emergence action against ABUTH: 90%
AMARE [2]
  Post-emergence action against AMARE: 100%
STEME
  Post-emergence action against STEME: 90%
ECHCG
  Post-emergence action at 320 g/ha against ECHCG in %: 80%
AMARE [3]
  Post-emergence action against AMARE in %: 80%
PHBPU [4]
  Post-emergence action against PHBPU in %: 80%
POLCO
  Post-emergence action against POLCO in %: 80%
AVEFA
  Post-emergence action against AVEFA in %: 90%

## COC(=O)COc1nn(-c2ccccc2F)c(-c2cncnc2)c1Br [VI-004, Methyl {[4-bromo-1-(2-fluorophenyl)-5-(pyrimidin-5-yl)-1H-pyrazol-3-yl]oxy}acetate]
VERPE
  pest or weed control at 1280 g/ha: 90%
VIOTR
  pest or weed control at 320 g/ha: 100%
ABUTH
  Post-emergence action against ABUTH: 90%
AMARE [2]
  Post-emergence action against AMARE: 100%
STEME
  Post-emergence action against STEME: 90%
AMARE [3]
  pest or weed control at 320 g/ha: 90%
PHBPU [4]
  Post-emergence action against PHBPU in %: 80%
POLCO
  pest or weed control at 320 g/ha: 80%
AVEFA
  pest or weed control at 320 g/ha: 100%
HORMU
  Post-emergence action against HORMU in %: 90%

## COC(=O)[C@@H](C)Oc1nn(-c2ccccc2F)c(-c2cncnc2)c1Br [VI-011, Methyl (2R)-2-{[4-bromo-1-(2-fluorophenyl)-5-(pyrimidin-5-yl)-1H-pyrazol-3-yl]oxy}propanoate]
ALOMY
  Pre-emergence action against ALOMY: 90%
DIGSA
  Pre-emergence action against DIGSA: 100%
KCHSC [5]
  Pre-emergence action against KCHSC: 100%
VERPE
  pest or weed control at 1280 g/ha: 100%
ECHGC
  Pre-emergence action against ECHGC in %: 80%
PHBPU [1]
  Pre-emergence action against PHBPU in %: 90%
VIOTR
  pest or weed control at 320 g/ha: 100%
KCHSC [6]
  Post-emergence action against KCHSC: 90%
STEME
  Post-emergence action against STEME: 100%
AMARE [3]
  pest or weed control at 320 g/ha: 80%
POLCO
  pest or weed control at 320 g/ha: 80%
AVEFA
  pest or weed control at 320 g/ha: 90%

## COC(=O)COc1nn(-c2ccc(F)cc2)c(-c2ccc(F)nc2)c1Br [VII-002]
ECHGC
  Pre-emergence action against ECHGC in %: 90%
ABUTH
  Post-emergence action against ABUTH: 90%
STEME
  Post-emergence action against STEME: 90%
ECHCG
  Post-emergence action at 320 g/ha against ECHCG in %: 90%
PHBPU [4]
  Post-emergence action against PHBPU in %: 90%
POLCO
  Post-emergence action against POLCO in %: 80%
AVEFA
  Post-emergence action against AVEFA in %: 100%
HORMU
  Post-emergence action against HORMU in %: 90%
